From patent US20190223437A1, “ACTIVE COMPOUND COMBINATIONS COMPRISING A 5-SUBSTITUTED IMIDAZOLE DERIVATIVE” (BAYER CROPSCIENCE AKTIENGESELLSCHAFT, priority 2016, published 2019)
Values joined by “and” are separate entries in the source; they are usually repeats but may differ in a detail not shown here. Equal values may be shown once. Marks after values point to notes of the source that are not given here.

Legend:
[1] = tested on: causal agent of soybean rust (Phakopsora pachyrhizi); assay: Example C: in vivo preventive test on Phakopsora test (soybeans); conditions: compound alone
[2] = tested on: Sphaerotheca fuliginea; assay: Example D: in vivo preventive test on Sphaerotheca test (cucumbers); conditions: compound alone
[3] = tested on: causal agent of apple scab (Venturia inaequalis); assay: Example E: in vivo preventive test on Venturia test (apples); conditions: compound alone
[4] = Example G: in vivo ecotoxicity screening test on fish (Danio rerio); conditions: Danio rerio, in vivo, other: exposure of embryos in water containing the compound
Description: with ECxi the Effect Concentration (EC) of each chemical i (in ppm) causing x % effect on the ecotoxicity test endpoint.
For each compound combination, the predicted ECx value is calculated. It is then compared to an experimentally measured value. The ratio of predicted versus measured effect for the combination (thereafter called the Model Deviation Ratio or MDR) is then calculated.
The environmental effect of the compound combinations was measured experimentally in laboratory ecotoxicity screening studies with fish (Danio rerio). […] Mortality was recorded after 48 h and 96 h for each tested concentration and a reference control. […] Then, the MDR values were calculated.
This concentrate is then diluted with water to the desired a.i. concentration, leading to a maximal solvent concentration of 0.5%. by weight The compounds alone and the combinations were tested for five increasing concentrations comprised between 0.01 and 1000 ppm (mg/1) a.i., (e.g. 0.1, 1.0, 10 and 100 ppm a.i). For the combinations, compounds A and B were mixed in a weight ratio of 5:1 to 1:5 and five increasing concentrations were tested for each ratio.

[5] = tested on: Septoria tritici; assay: Example F: in vitro-Test with Septoria tritici; type: cell-based; conditions: compound alone
[6] = tested on: Pyrenophora oryzae; assay: Example F: in vitro-Test with Pyrenophora oryzae; type: cell-based; conditions: compound alone
[7] = Measurement of Log P values by HPLC on reversed phase columns (EEC directive 79/831 Annex V.A8); type: physicochemical; conditions: for chromatographic logP: reversed phase HPLC column, method [a]: LC-UV, acidic range, 0.1% formic acid in water and acetonitrile as eluent, Table 1, compounds of formula (I)
Description: Measurement of Log P values was performed according to EEC directive 79/831 Annex V.A8 by HPLC (High Performance Liquid Chromatography) on reversed phase columns with the following methods:

[8] = tested on: Alternaria solani; assay: Example A: in vivo preventive test on Alternaria test (tomatoes); conditions: compound alone, evaluated 3 days after inoculation
Description: (§1) The test is evaluated 3 days after the inoculation.

[9] = tested on: Colletotrichum coccodes; assay: Example B: in vivo preventive test on Colletotrichum test (tomatoes); conditions: compound alone
Description: as §1

With `O=C(NCCc1ncc(C(F)(F)F)cc1Cl)c1ccccc1C(F)(F)F` [2.005 fluopyram] the “Efficacy in % found” value ([1]; 5 ppm a.i.) was 0%, the “Efficacy in % found” value ([1]; 10 ppm a.i.) was 0% and the “Efficacy in % found” value ([1]; 20 ppm a.i.) was 0%.

For `CC(C)C1CCC(Cc2ccc(Cl)cc2)C1(O)Cn1cncn1` (centres unmarked) [1.012 ipconazole], the “Efficacy in % found” value ([2]; 2.5 ppm a.i.) was 0%, the “Efficacy in % found” value ([2]; 5 ppm a.i.) was 0% and the “Efficacy in % found” value ([2]; 10 ppm a.i.) was 0%.

In the case of `Cc1nn(C)c(F)c1C(=O)Nc1ccccc1C(C)CC(C)C` (centres unmarked) [2.017 penflufen], the “Efficacy in % found” value ([3]; 5 ppm a.i.) is reported as 18%, the “Efficacy in % found” value ([3]; 10 ppm a.i.) is reported as 26% and the “Efficacy in % found” value ([3]; 20 ppm a.i.) is reported as 23%. For the same compound, the “Efficacy in % found” value ([1]; 5 ppm a.i.) was 0%, the “Efficacy in % found” value ([1]; 10 ppm a.i.) was 8% and the “Efficacy in % found” value ([1]; 20 ppm a.i.) was 60%.

`O=C(Cc1ccccc1)N/C(=N\OCC1CC1)c1c(C(F)(F)F)ccc(F)c1F` [Example 15.008, cyflufenamid] gave an LC50 at 48 h [4] of 9.71 µg/mL and an LC50 at 96 h [4] of 5.2 µg/mL.

In the case of `CCCOc1nc2ccc(I)cc2c(=O)n1CCC` [13.004 proquinazid], the “Efficacy in % found” value ([2]; 25 ppm a.i.) is reported as 90%, the “Efficacy in % found” value ([2]; 50 ppm a.i.) is reported as 100% and the “Efficacy in % found” value ([2]; 100 ppm a.i.) is reported as 100%. For the same compound, the Efficacy % ([5]; 4 ppm) was 0% and the Efficacy % ([5]; 20 ppm) was 37% and 40%.

`OC(Cc1ccccc1Cl)(Cn1nc[nH]c1=S)C1(Cl)CC1` (centres unmarked) [Example 1.018, prothioconazole] showed an LC50 at 48 h [4] of 9.49 µg/mL and an LC50 at 96 h [4] of 3.16 µg/mL.

In the case of `CC(C)(C)C(O)(CCc1ccc(Cl)cc1)Cn1cncn1` (centres unmarked) [Example 1.021, tebuconazole], the LC50 at 48 h [4] is reported as 19.7 µg/mL and the LC50 at 96 h [4] is reported as 19.7 µg/mL.

In the case of `O=C(Cc1ccccc1)N/C(=N\OCC1CC1)c1c(C(F)(F)F)ccc(F)c1F` [15.008 cyflufenamid], the “Efficacy in % found” value ([3]; 1 ppm a.i.) is reported as 0%, the “Efficacy in % found” value ([3]; 2 ppm a.i.) is reported as 0% and the “Efficacy in % found” value ([3]; 4 ppm a.i.) is reported as 8%.

For `N#Cc1c[nH]cc1-c1cccc2c1OC(F)(F)O2` [Example 13.001, fludioxonil], the LC50 at 48 h [4] was 0.91 µg/mL and the LC50 at 96 h [4] was 0.89 µg/mL.

With `O=C(Nc1ccccc1)N(Cc1ccc(Cl)cc1)C1CCCC1` [Example 4.005, pencycuron] the LC50 at 48 h [4] was > 200 µg/mL and the LC50 at 96 h [4] was > 200 µg/mL.

`CON=C(C(=O)OC)c1ccccc1CON=C(C)c1cccc(C(F)(F)F)c1` [3.020 trifloxystrobin] showed an Efficacy % ([6]; 0.04 ppm) of 0%, an Efficacy % ([6]; 0.2 ppm) of 0% and an Efficacy % ([6]; 1 ppm) of 0%.

`CON=C(C(=O)OC)c1ccccc1CON=C(C)c1cccc(C(F)(F)F)c1` [15.047 trifloxystrobin] showed an Efficacy % ([6]; 0.04 ppm) of 17% and an Efficacy % ([6]; 0.2 ppm) of 86%.

With `N#Cc1cncn1CC(O)(Cc1ccncc1Cl)C1(Cl)CC1` (racemic) [Example I-57] the LogP [7] was 1.88^[a].

For `N#Cc1cncn1C[C@@](O)(Cc1ccccc1F)C1(Cl)CC1` [Example I-133, 1-[(2S)-2-(1-chlorocyclopropyl)-3-(2-fluorophenyl)-2-hydroxypropyl]-1H-imidazole-5-carbonitrile], the chromatographic logP [7] was 2.59.

In the case of `CC(C)c1ccc(Cl)cc1CN(C(=O)c1c(C(F)F)nn(C)c1F)C1CC1` [Example 2.038, N-(5-chloro-2-isopropylbenzyl)-N-cyclopropyl-3-(difluoromethyl)-5-fluoro-1-methyl-1H-pyrazole-4-carboxamide], the LC50 at 48 h [4] is reported as 0.51 µg/mL, the LC50 at 96 h [4] is reported as 0.35 µg/mL and the “Efficacy in % found” value ([1]; 1 ppm a.i.) is reported as 0%. The “Efficacy in % found” value ([1]; 2 ppm a.i.) was 0% and the “Efficacy in % found” value ([1]; 4 ppm a.i.) was 0%.

Compound `CON=C(C(=O)OC)c1ccccc1CON=C(C)c1cccc(C(F)(F)F)c1` [Example 3.020, trifloxystrobin] has an LC50 at 48 h [4] of 0.4 µg/mL and an LC50 at 96 h [4] of 0.24 µg/mL.

With `OC(Cc1ccncc1F)(Cn1cncc1Cl)C1(Cl)CC1` (centres unmarked) [Example I-164] the LogP [7] was 1.46^[a].

With `CC(C)(C)[C@@H](O)[C@@H](Cc1ccc(Cl)cc1)n1cncn1` (racemic) [Example 1.015, paclobutrazol] the LC50 at 48 h [4] was 99.8 µg/mL and the LC50 at 96 h [4] was 56.5 µg/mL.

In the case of `COc1ccnc(C(=O)N[C@H]2COC(=O)[C@H](Cc3ccccc3)[C@@H](OC(=O)C(C)C)[C@H](C)OC2=O)c1OCOC(=O)C(C)C` [Example 3.025, (3S,6S,7R,8R)-8-benzyl-3-[({3-[(isobutyryloxy)methoxy]-4-methoxypyridin-2-yl}carbonyl)amino]-6-methyl-4,9-dioxo-1,5-dioxonan-7-yl 2-methylpropanoate], the Efficacy % ([6]; 4 ppm) is reported as 0%, the Efficacy % ([6]; 20 ppm) is reported as 0% and the LC50 at 48 h [4] is reported as 2.31 µg/mL. For the same compound, the LC50 at 96 h [4] was 1.87 µg/mL, the “Efficacy in % found” value ([1]; 5 ppm a.i.) was 0% and the “Efficacy in % found” value ([1]; 10 ppm a.i.) was 30%. The “Efficacy in % found” value ([1]; 20 ppm a.i.) was 35%.

`CC(C)C1CCC(Cc2ccc(Cl)cc2)C1(O)Cn1cncn1` (centres unmarked) [Example 1.012, ipconazole] showed an LC50 at 48 h [4] of 13.8 µg/mL and an LC50 at 96 h [4] of 6.57 µg/mL.

In the case of `OC(Cc1ccccc1Cl)(Cn1cncc1I)C1(Cl)CC1` (centres unmarked) [Example I-14], the LogP [7] is reported as 2.14^[a].

With `N#Cc1cncn1CC(O)(Cc1ccc(F)cc1)C1CCCC1` (centres unmarked) [Example I-161] the LogP [7] was 2.82^[a].

In the case of `OC(Cn1cncc1Br)(C(F)c1ccccc1Cl)C1(Cl)CC1` (centres unmarked) [Example I-23], the LogP [7] is reported as 2.32^[a].

For `N#Cc1c(Cl)c(Cl)c(Cl)c(C#N)c1Cl` [5.004 chlorothalonil, chlorothalonil], the “Efficacy in % found” value ([8]; 12.5 ppm a.i.) was 0%, the “Efficacy in % found” value ([8]; 25 ppm a.i.) was 0% and the “Efficacy in % found” value ([8]; 50 ppm a.i.) was 15%. For the same compound, the “Efficacy in % found” value ([9]; 12.5 ppm a.i.) was 0%, the “Efficacy in % found” value ([9]; 25 ppm a.i.) was 0% and the “Efficacy in % found” value ([9]; 50 ppm a.i.) was 0%. For the same compound, the “Efficacy in % found” value ([1]; 12.5 ppm a.i.) was 0%, the “Efficacy in % found” value ([1]; 25 ppm a.i.) was 0% and the “Efficacy in % found” value ([1]; 50 ppm a.i.) was 30%.

For `CCOC(Cc1ccc(Cl)cc1F)(Cn1cncc1Cl)C1(Cl)CC1` (centres unmarked) [Example I-122], the LogP [7] was 3.10^[a].

In the case of `O=C(Cc1ccccc1)c1cncn1CC(O)(Cc1ccccc1)C1(Cl)CC1` (centres unmarked) [Example I-169], the LogP [7] is reported as 3.56^[a].

Work on `N#Cc1cncn1C[C@](O)(Cc1ccccc1F)C1(Cl)CC1` [Example I-132, 1-[(2R)-2-(1-chlorocyclopropyl)-3-(2-fluorophenyl)-2-hydroxypropyl]-1H-imidazole-5-carbonitrile] yielded a chromatographic logP [7] of 2.59.

In the case of `Cc1ccc(CC(O)(Cn2cncc2Cl)C2(Cl)CC2)c(F)c1` (centres unmarked) [Example I-108], the LogP [7] is reported as 2.34^[a].

With propineb [5.018 propineb] the “Efficacy in % found” value ([8]; 12.5 ppm a.i.) was 0%, the “Efficacy in % found” value ([8]; 25 ppm a.i.) was 8% and the “Efficacy in % found” value ([8]; 50 ppm a.i.) was 50%. The “Efficacy in % found” value ([1]; 12.5 ppm a.i.) was 0%, the “Efficacy in % found” value ([1]; 25 ppm a.i.) was 0% and the “Efficacy in % found” value ([1]; 50 ppm a.i.) was 40%.

In the case of `N#Cc1cncn1CC(O)(Cc1ccnc(Cl)c1)C1(Cl)CC1` (racemic) [Example I-62], the LogP [7] is reported as 2.04^[a].

With `OC(Cn1cncc1Cl)(C(F)c1ccccc1F)C1(Cl)CC1` (centres unmarked) [Example I-28] the LogP [7] was 2.01^[a].

For `CC(C)(C)CC(O)(Cc1ccc(Cl)cc1)Cn1cncc1C#N` (racemic) [Example I-86], the LogP [7] was 3.37^[a].

For `Cc1cncn1CC(O)(Cc1ccccc1Cl)C1(Cl)CC1` (centres unmarked) [Example I-03], the LogP [7] was 1.72^[a].

In the case of `OC(Cc1ccccc1Cl)(Cn1cncc1Br)C1(Cl)CC1` (centres unmarked) [Example I-04], the LogP [7] is reported as 2.27^[a].

For `C#Cc1cncn1CC(O)(Cc1ccccc1Cl)C1(Cl)CC1` (racemic) [Example I-38], the LogP [7] was 2.09^[a].

For `OC(Cc1ccccc1Cl)(Cn1cncc1C(F)(F)F)C1(Cl)CC1` (centres unmarked) [Example I-15], the LogP [7] was 3.63^[a].

For `OC(Cc1ccccc1)(Cn1cncc1Cl)C1(Cl)CC1` (racemic) [Example I-39], the LogP [7] was 2.04^[a].

With `CC(C)C(O)(Cc1ccc(Cl)cc1F)Cn1cncc1C#N` (centres unmarked) [Example I-118] the LogP [7] was 2.91^[a].

For `CC1CC(C)(C)c2cccc(NC(=O)c3cn(C)nc3C(F)F)c21` (centres unmarked) [Example 2.027, 3-(difluoromethyl)-1-methyl-N-(1,1,3-trimethyl-2,3-dihydro-1H-inden-4-yl)-1H-pyrazole-4-carboxamide, reference compound], the Efficacy % ([6]; 0.8 ppm) was 55%, the Efficacy % ([6]; 4 ppm) was 81% and the LC50 at 48 h [4] was 1.85 µg/mL. The LC50 at 96 h [4] was 1.74 µg/mL, the “Efficacy in % found” value ([3]; 1 ppm a.i.) was 8% and the “Efficacy in % found” value ([3]; 2 ppm a.i.) was 8%. For the same compound, the “Efficacy in % found” value ([3]; 4 ppm a.i.) was 74%, the “Efficacy in % found” value ([1]; 1 ppm a.i.) was 15% and the “Efficacy in % found” value ([1]; 2 ppm a.i.) was 85%. The “Efficacy in % found” value ([1]; 4 ppm a.i.) was 96%.

With `OC(Cc1ccnc(Cl)c1)(Cn1cncc1Cl)C1(Cl)CC1` (racemic) [Example I-75] the LogP [7] was 1.62^[a].
